Measurements published in the supplement of paper PMC10307832.

Legend:
Assay in all cases: relative viability (nuclei count vs DMSO), 5 days (fraction); higher = more cells survive
Alpelisib + Dasatinib = compound: Cc1nc(NC(=O)N2CCC[C@H]2C(N)=O)sc1-c1ccnc(C(C)(C)C(F)(F)F)c1 [Alpelisib] + Cc1nc(Nc2ncc(C(=O)Nc3c(C)cccc3Cl)s2)cc(N2CCN(CCO)CC2)n1 [Dasatinib] (partner 0.075 µM)
Method in brief: (§1)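 Values are medians from duplicate plates. Each reflects relative viability, defined as the nuclei count of treated wells over that of vehicle wells. Lung cancer cell lines in 1536-well plates were pin-tool dosed one day after seeding with one drug alone or with a fixed anchor-drug dose plus five library-drug doses (not always all listed) in √10 steps, then fixed, stained and imaged at 4× after 5 days.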

OSI-027 + Foretinib = compound: COc1cccc2cc(-c3nc([C@H]4CC[C@H](C(=O)O)CC4)n4ncnc(N)c34)[nH]c12 [OSI-027] + COc1cc2c(Oc3ccc(NC(=O)C4(C(=O)Nc5ccc(F)cc5)CC4)cc3F)ccnc2cc1OCCCN1CCOCC1 [Foretinib] (partner 0.25 µM)
Method in brief: as §1

Alpelisib + Lapatinib = compound: Cc1nc(NC(=O)N2CCC[C@H]2C(N)=O)sc1-c1ccnc(C(C)(C)C(F)(F)F)c1 [Alpelisib] + CS(=O)(=O)CCNCc1ccc(-c2ccc3ncnc(Nc4ccc(OCc5cccc(F)c5)c(Cl)c4)c3c2)o1 [Lapatinib] (partner 2 µM)
Method in brief: as §1

Alpelisib + Vorinostat = compound: Cc1nc(NC(=O)N2CCC[C@H]2C(N)=O)sc1-c1ccnc(C(C)(C)C(F)(F)F)c1 [Alpelisib] + O=C(CCCCCCC(=O)Nc1ccccc1)NO [Vorinostat] (partner 1 µM)
Method in brief: as §1

Row | Cell Line | relative viability (Alpelisib + Dasatinib; first compound 0.04 µM) | relative viability (Alpelisib + Dasatinib; first compound 0.1265 µM) | relative viability (Alpelisib + Dasatinib; first compound 0.4 µM) | relative viability (Alpelisib + Dasatinib; first compound 1.265 µM) | relative viability (Alpelisib + Dasatinib; first compound 4 µM) | relative viability (OSI-027 + Foretinib; first compound 0.01 µM) | relative viability (OSI-027 + Foretinib; first compound 0.03162 µM) | relative viability (OSI-027 + Foretinib; first compound 0.1 µM) | relative viability (OSI-027 + Foretinib; first compound 0.3162 µM) | relative viability (OSI-027 + Foretinib; first compound 1 µM) | relative viability (Alpelisib + Lapatinib; first compound 0.04 µM) | relative viability (Alpelisib + Lapatinib; first compound 0.1265 µM) | relative viability (Alpelisib + Lapatinib; first compound 0.4 µM) | relative viability (Alpelisib + Lapatinib; first compound 1.265 µM) | relative viability (Alpelisib + Lapatinib; first compound 4 µM) | relative viability (Alpelisib + Vorinostat; first compound 0.04 µM) | relative viability (Alpelisib + Vorinostat; first compound 0.1265 µM) | relative viability (Alpelisib + Vorinostat; first compound 0.4 µM) | relative viability (Alpelisib + Vorinostat; first compound 1.265 µM) | relative viability (Alpelisib + Vorinostat; first compound 4 µM)
1 | COR-L23 | 0.436 | 0.392 | 0.535 | 0.278 | 0.292 | 1.01 | 0.844 | 0.993 | 1.06 | 0.772 | 1.03 | 0.896 | 1.14 | 0.781 | 0.606 | 0.438 | 0.474 | 0.398 | 0.283 | 0.272
2 | COR-L 105 | 0.301 | 0.444 | 0.346 | 0.273 | 0.26 | 1.22 | 1.24 | 0.888 | 1.29 | 0.995 | 0.338 | 0.391 | 0.364 | 0.287 | 0.337 | 0.867 | 0.86 | 0.784 | 0.668 | 0.838
3 | EKVX | 0.556 | 0.572 | 0.544 | 0.407 | 0.266 | 0.707 | 0.764 | 0.74 | 0.568 | 0.581 | 0.195 | 0.34 | 0.184 | 0.174 | 0.175 | 0.584 | 0.657 | 0.928 | 0.597 | 0.456
4 | EMC-BAC-2 | 0.31 | 0.291 | 0.28 | 0.228 | 0.208 | 0.898 | 0.972 | 0.887 | 0.745 | 0.329 | 0.826 | 0.844 | 0.84 | 0.68 | 0.628 | 0.448 |  | 0.455 | 0.278 | 0.261
5 | EPLC-272H | 0.313 | 0.281 | 0.219 | 0.201 | 0.202 | 0.712 | 0.498 | 0.594 | 0.41 | 0.236 | 0.859 | 0.842 | 0.805 | 0.7 | 0.525 | 0.474 | 0.455 | 0.465 | 0.209 | 0.222
6 | H3255 | 0.403 | 0.345 | 0.363 | 0.315 | 0.256 | 0.772 | 1.03 | 0.811 | 0.865 | 0.481 | 0.242 | 0.215 | 0.259 | 0.203 | 0.197 | 0.778 | 0.733 | 0.826 | 0.613 | 0.496
7 | HARA | 0.291 | 0.281 | 0.215 | 0.174 | 0.155 | 0.91 | 0.92 | 0.835 | 0.715 | 0.322 | 0.747 | 0.699 | 0.46 | 0.305 | 0.209 | 0.528 | 0.52 | 0.511 | 0.305 | 0.391
8 | HCC-15 | 0.559 | 0.587 | 0.56 | 0.379 | 0.31 | 1.11 | 0.954 | 0.969 | 0.895 | 0.58 | 0.897 | 0.858 | 0.94 | 0.823 | 0.725 | 0.913 | 0.863 | 0.908 | 0.598 | 0.704
9 | HCC-78 | 0.367 | 0.326 | 0.357 | 0.366 | 0.314 | 0.551 | 0.511 | 0.52 | 0.425 | 0.366 | 0.619 | 0.39 | 1.07 | 0.659 | 0.413 | 0.363 | 0.392 | 0.478 | 0.326 | 0.342
10 | HCC-366 | 0.556 | 0.596 | 0.427 | 0.34 | 0.207 | 0.98 | 1.05 | 0.978 | 0.878 | 0.748 | 1.04 | 1.02 | 1.14 | 0.824 | 0.535 | 0.429 | 0.356 | 0.353 | 0.208 | 0.156
11 | HCC-827 | 0.378 | 0.427 | 0.296 | 0.234 | 0.233 | 1.19 | 1.03 | 0.991 | 0.855 | 0.411 | 0.19 | 0.192 | 0.211 | 0.179 | 0.188 | 0.899 | 0.707 | 0.495 | 0.856 | 0.647
12 | HOP-62 | 0.608 | 0.598 | 0.755 | 0.539 | 0.531 | 1.19 | 1.09 | 1.02 | 1.14 | 0.541 | 1.03 | 0.775 | 1.02 | 0.826 | 0.794 | 0.665 | 0.558 | 0.683 | 0.456 | 0.491
13 | LC-2-ad | 0.596 | 0.448 | 0.63 | 0.23 | 0.225 | 0.826 | 0.899 | 0.888 | 0.765 | 0.582 | 0.958 | 1.01 | 0.975 | 0.645 | 0.542 | 0.664 | 0.721 | 0.744 | 0.575 | 0.496
14 | LCLC-97TM1 | 0.843 | 0.75 | 0.855 | 0.641 | 0.566 | 0.969 | 0.927 | 0.994 | 0.584 | 0.432 | 0.75 | 0.854 | 0.656 | 0.686 | 0.387 | 0.673 | 0.58 | 0.63 | 0.33 | 0.291
15 | LK-2 | 0.327 | 0.287 | 0.257 | 0.185 | 0.186 | 1.13 | 1.2 | 1.13 | 0.778 | 0.195 | 0.871 | 0.763 | 0.768 | 0.474 | 0.564 | 0.261 | 0.264 | 0.261 | 0.234 | 0.306
16 | LOU-NH91 | 0.478 | 0.482 | 0.482 | 0.452 | 0.34 | 0.924 | 0.914 | 0.818 | 0.8 | 0.58 | 0.767 | 0.597 | 0.632 | 0.511 | 0.522 | 0.936 | 0.785 | 0.823 | 0.715 | 0.556
